Assay results published in article PMC11462627, “SAL0114: a novel deuterated dextromethorphan-bupropion combination with improved antidepressant efficacy and safety profile” (Frontiers in Pharmacology, 2024).

Tests used:
[1] = Pharmacokinetic study in C57BL/6 mice; type: in vivo; conditions: plasma DM or deDM, C57BL/6 mice, oral, 20 mg/kg, mean ± SD
Description: The assay was built in a way similar to that previously published by [Beconi et al. (2011)] with some modifications. A total of 36 male C57BL/6 mice, weighing between 20 and 22 g, were randomly divided into four groups of nine mice each. […] Mice in each group were numbered 1–9. Following the oral administration of the compounds in each group, blood was collected from the jugular vein at the specified time points, with three mice at each time point and two to three times for each mouse. 1–3 numbered mice had blood collection time points of 0.25, 1.5, and 7 h after the administration of the compounds, 4–6 numbered mice had blood collection time points of 0.5, 2, and 24 h after the administration of the compounds, and 7–9 numbered mice had blood collection time points of 1 and 5 h after the administration of the compounds. All blood samples were collected without anesthesia, and blood was collected in heparinized EP tubes. Plasma was obtained by centrifuging the blood at 10,000 rpm for 2 min at 4°C.

[2] = test system: ICR mice; assay: Tail suspension test; type: in vivo; conditions: TST, oral, 1 h after administration, deDM 10 and 18 mg/kg, BUP 50 mg/kg, deDM + BUP 10 + 50 and 18 + 50 mg/kg
Method: The TST was adapted from the behavioral despair test described by Nguyen et al. ([Nguyen et al., 2017]), with some modifications. […] All compounds were administered orally via gavage at a volume of 10 mL/kg body weight, with the vehicle group receiving an equivalent volume of saline. One hour after administration, mice underwent a tail suspension test (TST). For the TST, each mouse was suspended by its tail, with adhesive tape attached 2 cm from the tail tip and secured to a metal rod. Care was taken to ensure a minimum distance of 15 cm between the suspended animal and the surrounding objects. The test was performed using the ANY-maze version 4.63 video tracking program (Stoelting Co., Wood Dale, IL, United States) for a total duration of 6 min. The initial 2 min served as an acclimatization period and were not scored. The immobility time during the subsequent 4 min was measured using the same software. Immobility was defined as mouse hanging passively and motionless. The ANY-Maze software parameters were set as follows: acclimatization period = 120 s, test duration = 240 s, minimum immobility time = 2 s, and immobility sensitivity = 75%. […]

[3] = test system: Sprague-Dawley rats; assay: Reserpine-induced hypothermia in rats; type: in vivo; conditions: oral, 30 min after treatment
Method: A reserpine-induced hypothermia test was performed according to the method described by Rojas-Corrales et al. ([Rojas-Corrales et al., 2004]; [Dhamija et al., 2017]), with some modifications. 80 male Sprague-Dawley rats were administered an intraperitoneal injection of reserpine (4 mg/kg). 18 h after the injection, rectal temperatures were measured using a rectal probe connected to a thermometer (MC-347, Omron Healthcare, Dalian, China). Rats with body temperatures not exceeding 34.5°C were considered successfully modeled. […] An additional group of ten rats not treated with reserpine served as the normal control. After the group assignment, the second phase of compound administration was initiated. The normal and model control groups received oral saline (10 mL/kg), whereas the other groups received their respective compounds orally at the specified doses, all in an equivalent volume (10 mL/kg). Rectal temperatures were measured 30 min after treatment to assess the effect of compounds in each group on the reserpine-induced hypothermia model. All experimental procedures were conducted in strict accordance with guidelines approved by the Institutional Animal Care and Use Committee of Shenzhen Salubris Pharmaceuticals Co., Ltd. A P value of less than 0.05 was considered statistically significant for comparisons between groups.

[4] = Pharmacokinetics in beagle dog after oral administration; type: in vivo; conditions: deDM, 14 mg/kg, mean, n=3
Description: Results expressed as mean, n=3 per group

[5] = Metabolic stability in liver microsomes; type: in vitro ADME, human
Method: All incubations were performed in duplicates. Verapamil was used as the positive control. After pre-warming the mixture for 5 min, reactions were initiated by the addition of NADPH (1 mM). Samples (30 μL) were taken at 0, 20, and 60 min, and the reaction was immediately terminated by adding 150 μL acetonitrile containing an analytical internal standard (IS). Samples were centrifuged at 4,000 rpm for 5 min in a centrifuge (5810R, Eppendorf, Germany), and the supernatant was analyzed by LC-MS/MS (Thermo Scientific TSQ Quantum Ultra, United States).
The in vivo clearance values (CLint = CLint, in vitro × (mg protein/g liver weight) × (g liver weight/kg body weight)) of humans were predicted by CLint, in vitro values using physiologically-based scaling factors, hepatic microsomal protein concentrations (48.8 mg protein/g liver), and liver weights (25.7 g/kg body weight). The in vivo hepatic clearance (CLH= (Q × CLint)/(Q + CLint)) was then calculated by using CLint and hepatic blood flow, Q (20.7 mL·min^−1·kg^−1 in humans).

In the case of deuterated dextromethorphan [deDM], the AUC0-last [1] is reported as 387 ± 163 ng·h/mL, the Cmax [1] is reported as 269 ± 83 ng/mL and the “immobilization time compared to the vehicle group” value [2] is reported as “did not significantly reduce the immobilization time”. The “body temperature compared with the model (vehicle) group” value ([3]; reserpine 4 mg/kg i.p. rats, BUP 40 mg/kg, deDM 5 and 10 mg/kg, deDM + BUP 5 + 40 and 10 + 40 mg/kg) was “increased the body temperature of model animals in a dose-dependent manner”, the “body temperature, high dose compared with the model (vehicle) group” value ([3]; reserpine rats, 10 mg/kg) was “reaching a statistically significant difference” and the “AUC0-last (♀)” value ([4]; female beagle dog) was 153 ng·h/mL. For the same substance, the “Cmax (♀)” value ([4]; female beagle dog) was 60 ng/mL, the “AUC0-last (♂)” value ([4]; male beagle dog) was 383 ng·h/mL and the “Cmax (♂)” value ([4]; male beagle dog) was 157 ng/mL. The T1/2 ([5]; 1 μM, 0.5 mg/mL human liver microsomes, NADPH 1 mM, 37°C, mean, n = 2) was 2.265 h, the “CLint, in vitro” value ([5]; human liver microsomes, calculated from t1/2, mean, n = 2) was 12.8 mL/min/kg and the CLH ([5]; in vivo hepatic clearance predicted from CLint and hepatic blood flow 20.7 mL/min/kg, human) was 7.9 mL/min/kg.
